Test: refractive index (other wavelength) (dimensionless); xn = mol fraction of the nth substance listed
Settings: 101 kPa, Liquid, Standard Abbe refractometry

CC(C)OC(C)C [diisopropyl ether] + CO
Settings	refractive index
313.15 K, Wavelength=644 nm, x2 = 0.9527	1.32574
313.15 K, Wavelength=644 nm, x2 = 0.9773	1.32248
313.15 K, Wavelength=644 nm, x2 = 0.989	1.3213
313.15 K, Wavelength=644 nm, x2 = 0.9964	1.32034
313.15 K, Wavelength=706.5 nm, x2 = 0	1.35401
313.15 K, Wavelength=706.5 nm, x2 = 0.0423	1.35395
313.15 K, Wavelength=706.5 nm, x2 = 0.0424	1.35398
313.15 K, Wavelength=706.5 nm, x2 = 0.082	1.35392
313.15 K, Wavelength=706.5 nm, x2 = 0.0822	1.35411
313.15 K, Wavelength=706.5 nm, x2 = 0.1171	1.35398
313.15 K, Wavelength=706.5 nm, x2 = 0.1271	1.35399
313.15 K, Wavelength=706.5 nm, x2 = 0.1827	1.35378
313.15 K, Wavelength=706.5 nm, x2 = 0.2162	1.35364
313.15 K, Wavelength=706.5 nm, x2 = 0.251	1.35322
313.15 K, Wavelength=706.5 nm, x2 = 0.3298	1.35329
313.15 K, Wavelength=706.5 nm, x2 = 0.3577	1.35251
313.15 K, Wavelength=706.5 nm, x2 = 0.4497	1.35124
313.15 K, Wavelength=706.5 nm, x2 = 0.4525	1.35165
313.15 K, Wavelength=706.5 nm, x2 = 0.522	1.34954
313.15 K, Wavelength=706.5 nm, x2 = 0.609	1.34648
313.15 K, Wavelength=706.5 nm, x2 = 0.6529	1.34501
313.15 K, Wavelength=706.5 nm, x2 = 0.7504	1.34121
313.15 K, Wavelength=706.5 nm, x2 = 0.804	1.33693
313.15 K, Wavelength=706.5 nm, x2 = 0.807	1.33702
313.15 K, Wavelength=706.5 nm, x2 = 0.8727	1.33354
313.15 K, Wavelength=706.5 nm, x2 = 0.9233	1.32582
313.15 K, Wavelength=706.5 nm, x2 = 0.9253	1.32745
313.15 K, Wavelength=706.5 nm, x2 = 0.9527	1.32454
313.15 K, Wavelength=706.5 nm, x2 = 0.9773	1.32131
313.15 K, Wavelength=706.5 nm, x2 = 0.989	1.32103
313.15 K, Wavelength=706.5 nm, x2 = 0.9964	1.31919
318.15 K, Wavelength=40.47 nm, x2 = 0	1.36447
318.15 K, Wavelength=40.47 nm, x2 = 0.0423	1.36444
318.15 K, Wavelength=40.47 nm, x2 = 0.0424	1.3644
318.15 K, Wavelength=40.47 nm, x2 = 0.082	1.36442
318.15 K, Wavelength=40.47 nm, x2 = 0.0822	1.36413
318.15 K, Wavelength=40.47 nm, x2 = 0.1171	1.36444
318.15 K, Wavelength=40.47 nm, x2 = 0.1271	1.36445
318.15 K, Wavelength=40.47 nm, x2 = 0.1827	1.36427
318.15 K, Wavelength=40.47 nm, x2 = 0.2162	1.36415
318.15 K, Wavelength=40.47 nm, x2 = 0.251	1.3636
318.15 K, Wavelength=40.47 nm, x2 = 0.3298	1.36408
318.15 K, Wavelength=40.47 nm, x2 = 0.3577	1.36296
318.15 K, Wavelength=40.47 nm, x2 = 0.4497	1.36174
318.15 K, Wavelength=40.47 nm, x2 = 0.4525	1.36248
318.15 K, Wavelength=40.47 nm, x2 = 0.522	1.35999
318.15 K, Wavelength=40.47 nm, x2 = 0.5543	1.35901
